Laboratory results: publication PMC6273578, “Design, Synthesis and Biological Evaluation of Benzohydrazide Derivatives Containing Dihydropyrazoles as Potential EGFR Kinase Inhibitors” (Molecules, 2016)

Columns and labels:
[1] = test system: HeLa cells; assay: MTT antiproliferative assay, HeLa; type: cell-based, human; settings: Homo sapiens, read-out: In vitro antiproliferative activity IC50, HeLa
Experimental: (§1) IC50 values of the test compounds against A549, MCF-7, Hela and HepG2 cells were obtained from State Key Laboratory of Pharmaceutical Biotechnology, Nanjing University, and were determined by a standard (MTT)-based colorimetric assay (Beyotime Inst. Biotech., Nanjing, China). Tumor cell lines were grown to mid-log phase and then diluted to […] making sure they were seeded in 96-well plates (Philas, Nanjing, China) at a density of 5 × 10^3–1 × 10^4 cells per well. The outer wells containing 1 × PBS solution of the plate are not used for the assay to avoid the possibility of edge effects. The plate was incubated at 37 °C in a 5% CO2 incubator in DMEM containing 10% fetal bovine serum (FBS, Gibco, Waltham, MA, USA) for 24 h. Then, we added a 100-μL series concentration of drug-containing medium into the wells to maintain the final concentration of drug as 100, 10, 1 and 0.1 μmol/L. After 12 h, cell survival was determined by the addition of a MTT (3-(4,5-dimethylthiazol-2-yl)-2,5-diphenyl trtrazolium bromide) solution (10 μL of 5 mg/mL MTT in 1 × PBS). We waited for 4 h proliferation, discarded the medium and quickly added 150 μL DMSO per well, shaking the plates well for 10 min to ensure complete dissolution. Optical absorbance was measured at 570 nm on a microplate reader (Bio-Rad, Hercules, CA, USA). Survival ratios are expressed in percentages with respect to untreated cells. The experiments were replicated at least three times to verify the methodology reproducibility when using the above-mentioned conditions.

[2] = test system: A549 cells; assay: MTT antiproliferative assay, A549; type: cell-based, human; settings: Homo sapiens, read-out: In vitro antiproliferative activity IC50, A549
Experimental: as §1

[3] = test system: HepG2 cells; assay: MTT antiproliferative assay, HepG2; type: cell-based, human; settings: Homo sapiens, read-out: In vitro antiproliferative activity IC50, HepG2
Experimental: as §1

[4] = test system: HeLa cells; assay: Cell apoptosis assay by flow cytometry (Annexin V-FITC/PI); type: cell-based, human; settings: 24 h
Experimental: To verify whether the inhibition of cell growth of HeLa cell lines was related to cell apoptosis, we decided to use flow cytometry with an Annexin V-FITC/PI Apoptosis Detection Kit to […] the HeLa cell apoptosis with compound H20.
For Annexin V/PI assays, HeLa cells were stained with Annexin VFITC and PI and then monitored for apoptosis by flow cytometry. Briefly, 5 × 10^3 cells were seeded in 6-well plates for 24 h and then were treated with H20 (2.0, 4.0, 6.0, 8.0 μM) for 24 h. Then, cells were collected and washed twice with PBS and stained with 5 μL Annexin V-FITC and 5 μL PI (5 μg/mL) in 1× binding buffer (10 mM HEPES, pH 7.4, 140 mM […], 2.5 mM CaCl2) for 15 min at room temperature in the dark. Apoptotic cells were quantified using a BD Accuri C6 Flow Cytometer (Becton, Dickinson and Company, Clifton, NJ, USA). Statistical analysis was done using Flowjo 7.6.1 software. Both early apoptotic (AnnexinV-positive, PI-negative) and late apoptotic (double positive of Annexin V and PI) cells were detected.

[5] = target: epidermal growth factor receptor (EGFR) (Homo sapiens, UniProt P00533); assay: EGFR kinase inhibition, solid-phase ELISA assay
epidermal growth factor receptor (EGFR), sequence (P00533 25-1210): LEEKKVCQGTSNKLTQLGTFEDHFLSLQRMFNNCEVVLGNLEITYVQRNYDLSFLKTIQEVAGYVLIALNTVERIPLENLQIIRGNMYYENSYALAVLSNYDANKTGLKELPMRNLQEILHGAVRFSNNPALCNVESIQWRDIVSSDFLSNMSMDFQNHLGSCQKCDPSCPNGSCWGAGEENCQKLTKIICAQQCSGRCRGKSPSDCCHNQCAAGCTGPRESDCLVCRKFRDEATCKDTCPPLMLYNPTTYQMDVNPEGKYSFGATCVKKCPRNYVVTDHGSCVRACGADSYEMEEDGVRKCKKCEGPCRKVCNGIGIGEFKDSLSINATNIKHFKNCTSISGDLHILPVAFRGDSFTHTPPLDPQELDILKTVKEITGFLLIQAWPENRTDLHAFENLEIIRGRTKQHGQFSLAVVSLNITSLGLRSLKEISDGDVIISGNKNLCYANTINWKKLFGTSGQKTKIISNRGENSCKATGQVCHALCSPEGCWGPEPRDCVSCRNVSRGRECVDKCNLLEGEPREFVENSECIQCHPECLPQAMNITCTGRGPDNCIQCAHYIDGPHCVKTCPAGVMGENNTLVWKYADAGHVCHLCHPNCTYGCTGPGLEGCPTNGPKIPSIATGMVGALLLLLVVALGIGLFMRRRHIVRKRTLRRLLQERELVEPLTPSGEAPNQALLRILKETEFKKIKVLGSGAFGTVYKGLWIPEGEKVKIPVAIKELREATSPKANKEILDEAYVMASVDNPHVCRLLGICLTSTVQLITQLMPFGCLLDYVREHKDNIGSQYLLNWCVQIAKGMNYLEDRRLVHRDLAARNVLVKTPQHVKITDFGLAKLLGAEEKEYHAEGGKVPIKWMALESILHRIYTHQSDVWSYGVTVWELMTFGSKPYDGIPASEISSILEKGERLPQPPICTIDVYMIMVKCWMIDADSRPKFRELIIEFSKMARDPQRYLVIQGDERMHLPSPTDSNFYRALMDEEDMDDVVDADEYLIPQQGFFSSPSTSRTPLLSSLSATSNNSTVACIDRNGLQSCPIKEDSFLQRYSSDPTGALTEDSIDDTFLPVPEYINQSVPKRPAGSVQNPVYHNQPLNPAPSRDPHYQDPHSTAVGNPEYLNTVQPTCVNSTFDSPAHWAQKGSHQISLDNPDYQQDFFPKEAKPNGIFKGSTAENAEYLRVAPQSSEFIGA
Experimental: All these newly synthesized compounds were evaluated for their inhibitory activities against EGFR kinases using a solid-phase ELISA assay.
EGFR tyrosine kinase activity was determined by an enzyme linked-immunosorbent assay (ELISA) in 96-well plates precoated in a 10 mL reaction volume including 4 mL diluted test compounds, 4 mL substrate and 2 mL ATP. […] The plates were then aspirated and washed twice with 200 mL 0.9% (w/v) NaCl, and incorporation of Pi was determined with an LX300 Epson Diagnostic microplate reader. […] The experiments were replicated at least three times to verify the methodology reproducibility when using the above-mentioned conditions.

[6] = test system: MCF-7 cells; assay: MTT antiproliferative assay, MCF-7; type: cell-based, human; settings: Homo sapiens, MCF7, read-out: In vitro antiproliferative activity IC50, MCF-7
Experimental: as §1

[7] = Cytotoxicity test (MTT) on 293T cells; settings: human, 293T human kidney epithelial cells
Experimental: The cytotoxic activity in vitro was measured by the colorimetric MTT assay. […] For the cytotoxicity assay, 20 μL of MTT (5 mg/mL) was added per well 4 h before the end of the incubation. After removing the supernatant, 200 μL DMSO was added to dissolve the formazan crystals. The absorbance at λ 570 nm was read on an LX300 Epson Diagnostic microplate reader, untreated cells were used as negative controls.

IC50 [1]: 150 nM
IC50 [2]: 460 nM
IC50 [3]: 210 nM
IC50 [5]: 80 nM
IC50 [6]: 290 nM
melting point: 241 to 243 °C
SMILES: COc1ccc(/C=N/NC(=O)c2ccc(N3N=C(c4ccc(C)cc4)CC3c3ccc4ccccc4c3)cc2)cc1 (centres unmarked) [Compound H20, (E)-N′-(4-Methoxybenzylidene)-4-(5-(naphthalen-2-yl)-3-(p-tolyl)-4,5-dihydro-1H-pyrazol-1-yl)benzo-hydrazide]
percentage of cell apoptosis ([4]; 2.0 μM): 28.7%
percentage of cell apoptosis ([4]; 4.0 μM): 34.9%
percentage of cell apoptosis ([4]; 6.0 μM): 47.2%
percentage of cell apoptosis ([4]; 8.0 μM): 58.12%
CC50 at 24 h [7]: 89900 nM
